From PMC10053552, “Multiple Bioactivities of Peptides from Hydrolyzed Misgurnus anguillicaudatus” (Molecules, 2023) come the findings set out here.

A short description of assay [1]: DPPH scavenging activity. In kind it is biochemical. To be noted: 0.5 mg/mL, glutathione at the same concentration. For orientation: Loss of DPPH colour is used to gauge radical scavenging.
Assay [2] has as its system pancreatic cholesterol esterase (CE). Nature of the assay: Pancreatic CE inhibitory activity. The note with it: 1 mg/mL (Figure 6a); pNPB substrate, pH 7.2, 37 °C, 30 min, 405 nm. It counts as biochemical.
Assay [3] is described as follows: Hydroxyl radical scavenging activity. It counts as biochemical. The note with it: 0.5 mg/mL; amount higher than that of glutathione at the same concentration.
Assay [4] addresses angiotensin-converting enzyme (ACE) (UniProt P12821).
In assay [5] the target is pancreatic cholesterol esterase (CE) (UniProt P19835).
UniProt P19835, sequence (P19835 21-753): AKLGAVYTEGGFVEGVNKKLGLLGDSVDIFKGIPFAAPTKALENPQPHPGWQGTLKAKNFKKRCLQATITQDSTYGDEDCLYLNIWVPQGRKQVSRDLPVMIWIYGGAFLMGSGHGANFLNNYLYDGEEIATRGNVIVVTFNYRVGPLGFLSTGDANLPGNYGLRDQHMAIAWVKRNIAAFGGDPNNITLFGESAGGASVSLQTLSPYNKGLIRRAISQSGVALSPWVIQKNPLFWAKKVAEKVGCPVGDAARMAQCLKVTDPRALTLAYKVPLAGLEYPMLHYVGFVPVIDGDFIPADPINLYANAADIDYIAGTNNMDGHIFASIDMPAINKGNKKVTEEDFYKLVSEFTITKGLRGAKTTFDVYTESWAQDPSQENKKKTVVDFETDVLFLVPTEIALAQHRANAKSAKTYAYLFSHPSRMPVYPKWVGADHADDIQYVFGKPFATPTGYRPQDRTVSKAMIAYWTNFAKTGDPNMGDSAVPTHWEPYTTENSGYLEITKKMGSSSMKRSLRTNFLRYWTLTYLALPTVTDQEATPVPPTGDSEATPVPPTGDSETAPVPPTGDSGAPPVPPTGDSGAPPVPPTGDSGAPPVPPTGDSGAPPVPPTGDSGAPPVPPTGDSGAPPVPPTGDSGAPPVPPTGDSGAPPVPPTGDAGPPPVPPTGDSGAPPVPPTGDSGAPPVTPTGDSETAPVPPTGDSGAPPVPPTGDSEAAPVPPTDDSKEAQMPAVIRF

UniProt P12821, sequence (P12821 30-1256): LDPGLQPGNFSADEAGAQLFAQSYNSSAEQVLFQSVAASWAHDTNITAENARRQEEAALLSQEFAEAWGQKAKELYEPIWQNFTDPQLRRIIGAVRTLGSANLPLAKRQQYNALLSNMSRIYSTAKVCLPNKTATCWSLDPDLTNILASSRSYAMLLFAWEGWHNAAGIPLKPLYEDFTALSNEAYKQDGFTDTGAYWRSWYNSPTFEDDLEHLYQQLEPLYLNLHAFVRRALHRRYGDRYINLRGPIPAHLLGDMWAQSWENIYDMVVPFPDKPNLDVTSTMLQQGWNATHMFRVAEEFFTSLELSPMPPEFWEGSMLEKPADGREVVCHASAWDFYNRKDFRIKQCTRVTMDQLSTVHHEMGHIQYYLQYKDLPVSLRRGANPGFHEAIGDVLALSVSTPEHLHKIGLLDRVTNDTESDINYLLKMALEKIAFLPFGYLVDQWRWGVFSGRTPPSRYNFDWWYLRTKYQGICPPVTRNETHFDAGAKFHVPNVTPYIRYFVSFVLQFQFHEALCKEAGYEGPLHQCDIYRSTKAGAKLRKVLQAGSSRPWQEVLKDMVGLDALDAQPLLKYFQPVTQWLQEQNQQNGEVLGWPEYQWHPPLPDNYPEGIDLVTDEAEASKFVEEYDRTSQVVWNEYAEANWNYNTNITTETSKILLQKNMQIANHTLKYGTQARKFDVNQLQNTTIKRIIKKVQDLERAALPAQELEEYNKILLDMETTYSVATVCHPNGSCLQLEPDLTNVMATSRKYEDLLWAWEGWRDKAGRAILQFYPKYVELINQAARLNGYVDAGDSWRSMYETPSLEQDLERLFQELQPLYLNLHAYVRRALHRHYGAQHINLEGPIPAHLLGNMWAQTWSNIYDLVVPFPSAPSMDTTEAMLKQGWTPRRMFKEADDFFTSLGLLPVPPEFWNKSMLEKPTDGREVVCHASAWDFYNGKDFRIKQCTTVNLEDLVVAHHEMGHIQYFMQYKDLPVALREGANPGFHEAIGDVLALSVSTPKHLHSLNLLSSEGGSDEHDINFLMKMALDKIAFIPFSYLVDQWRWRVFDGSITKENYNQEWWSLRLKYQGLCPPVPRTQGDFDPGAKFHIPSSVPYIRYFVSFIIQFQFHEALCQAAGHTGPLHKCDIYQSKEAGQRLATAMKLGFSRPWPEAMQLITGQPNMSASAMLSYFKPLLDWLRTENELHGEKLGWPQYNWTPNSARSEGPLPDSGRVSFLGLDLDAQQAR

On to “DAGAGIAL [Peptide D-5, peptide DAGAGIAL identified in loach hydrolysate component F2, solid-phase synthesized]”, for which the “DPPH scavenging activity as percentage of that of glutathione” value (from here on “DPPH scavenging activity as percentage”) in assay [1] is on record as “more than 90%”. “NDHFVKL [Peptide D-3, peptide NDHFVKL identified in loach hydrolysate component F2, solid-phase synthesized]”: the “DPPH scavenging activity as percentage” value in assay [1] is recorded as “more than 90%”. In addition, the “Pancreatic CE inhibition” value in assay [2] is reported as “exhibited inhibitory effects on pancreatic CE”. In the case of “SERDPSNIKWGDAGAQ [Peptide D-1, peptide … identified in loach hydrolysate component F2, solid-phase synthesized]”, the “Hydroxyl radical scavenging activity: excess over glutathione” value in assay [3] is on record as 15.87%. Further, the “DPPH scavenging activity as percentage” value in assay [1] was “more than 90%”.

In assay [4], AFRVPTP [peptide D-4 (AFRVPTP)] showed an ACE inhibitory activity, percent inhibition (FAPGG hydrolysis; peptide concentration not given) of 92.1% and an IC50 of ACE inhibition (enzyme activity, FAPGG hydrolysis, absorbance at 340 nm, 37 °C, pH 8.3) of 0.12 mM. In the case of TVDGPSGKLWR [peptide D-2 (…)], the IC50 of pancreatic CE inhibition (enzyme activity, pNPB hydrolysis, absorbance at 405 nm, 37 °C, pH 7.2) in assay [5] was found to be 2.62 mM.
